Experimental data taken from ChEMBL document CHEMBL1201862, “PubChem BioAssay data set” (2004).
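In this assay, cells in 96-well plates receive the compound at five concentrations for 48 hours. Endpoints are linearly interpolated between the surrounding concentrations. Abbreviation: GI50, concentration required for 50% inhibition of growth.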 Calls of active or inactive are those of the source. Cut-off read from the data, not from the text of the source: active = GI50 up to about 1.1 µM and inactive = higher.

Key:
Assay in all cases: NCI tumour cell line growth inhibition, 48 h
786-0 = tested on: 786-0
A498 = tested on: A498
HCC 2998 = tested on: HCC 2998
HL-60 = tested on: HL-60
KM12 = tested on: KM12
LOX IMVI = tested on: LOX IMVI
M19-MEL = tested on: M19-MEL
MOLT-4 = tested on: MOLT-4
Malme-3M = tested on: Malme-3M
OVCAR-4 = tested on: OVCAR-4
SK-MEL-28 = tested on: SK-MEL-28
SK-MEL-5 = tested on: SK-MEL-5
U-251 = tested on: U-251
UO-31 = tested on: UO-31
HOP-62 = tested on: HOP-62
Hs-578T = tested on: Hs-578T
MCF7 = tested on: MCF7
MDA-N = tested on: MDA-N
NCI/ADR-RES = tested on: NCI/ADR-RES
T47D = tested on: T47D

| SMILES | GI50 (786-0) | GI50 (A498) | GI50 (HCC 2998) | GI50 (HL-60) | GI50 (KM12) | GI50 (LOX IMVI) | GI50 (M19-MEL) | GI50 (MOLT-4) | GI50 (Malme-3M) | GI50 (OVCAR-4) | GI50 (SK-MEL-28) | GI50 (SK-MEL-5) | GI50 (U-251) | GI50 (UO-31) | GI50 (HOP-62) | GI50 (Hs-578T) | GI50 (MCF7) | GI50 (MDA-N) | GI50 (NCI/ADR-RES) | GI50 (T47D) |
| --- | --- | --- | --- | --- | --- | --- | --- | --- | --- | --- | --- | --- | --- | --- | --- | --- | --- | --- | --- | --- |
| COc1ccc(NC(=O)C(C)Oc2ccc(OCC3CCCCC3)cc2)cc1 (stereo not drawn) | > 100 µM (inactive) | > 100 µM (inactive) | 23.6 µM (inactive) | 42.2 µM (inactive) | > 100 µM (inactive) | 30.7 µM (inactive) | > 100 µM (inactive) | 54.5 µM (inactive) | 34.2 µM (inactive) | 94 µM (inactive) | > 100 µM (inactive) | 34.1 µM (inactive) | > 100 µM (inactive) | 51.4 µM (inactive) |  |  |  |  |  |  |
| O=C(CO)CC(=O)C(=O)Nc1nc([N+](=O)[O-])cs1 | > 100 µM (inactive) | > 100 µM (inactive) | > 100 µM (inactive) | > 100 µM (inactive) | > 100 µM (inactive) | > 100 µM (inactive) | > 100 µM (inactive) | > 100 µM (inactive) | > 100 µM (inactive) | > 100 µM (inactive) | > 100 µM (inactive) | > 100 µM (inactive) | > 100 µM (inactive) | > 100 µM (inactive) | > 100 µM (inactive) |  |  |  |  |  |
| COC(=O)C(Cc1nc2ccccc2nc1O)C(=O)C(=O)Nc1ccc([N+](=O)[O-])cc1[N+](=O)[O-] (stereo not drawn) | 16.5 µM (inactive) | 23 µM (inactive) | 18.1 µM (inactive) | 21.8 µM (inactive) | 16 µM (inactive) | 20.9 µM (inactive) | 16.6 µM (inactive) | 18.5 µM (inactive) | 19.3 µM (inactive) | 20.1 µM (inactive) | 22.6 µM (inactive) | 18.3 µM (inactive) | 17.1 µM (inactive) | 20.6 µM (inactive) | 24.2 µM (inactive) |  |  |  |  |  |
| NCC(=O)OCN1C(=O)C2C3C=CC(C2C1=O)C1C2C(=O)N(COC(=O)CN)C(=O)C2C31 (stereo not drawn) | 19.6 µM (inactive) | 87.5 µM (inactive) |  | 18.2 µM (inactive) | 20.8 µM (inactive) | 19.1 µM (inactive) | 21 µM (inactive) | 16.9 µM (inactive) |  | 26.1 µM (inactive) | 19.5 µM (inactive) | 17.7 µM (inactive) | 18.7 µM (inactive) | 56.8 µM (inactive) |  |  |  |  |  |  |
| COc1ccc(OC(C(=O)O)c2ccccc2)c2c1CCCC2=O (stereo not drawn) | > 100 µM (inactive) | > 100 µM (inactive) | > 100 µM (inactive) | > 100 µM (inactive) | > 100 µM (inactive) | > 100 µM (inactive) | > 100 µM (inactive) | > 100 µM (inactive) | > 100 µM (inactive) | > 100 µM (inactive) | > 100 µM (inactive) | > 100 µM (inactive) | > 100 µM (inactive) | > 100 µM (inactive) | > 100 µM (inactive) |  |  |  |  |  |
| COc1cc(/C=C2/C(=O)N(C(=O)c3ccccc3O)N=C2C)cc(OC)c1OC | 2.25 µM (inactive) | 0.473 µM (active) | 11.6 µM (inactive) | 2.9 µM (inactive) | 0.455 µM (active) | 2.09 µM (inactive) | 0.695 µM (active) | 0.887 µM (active) | 8.17 µM (inactive) | 2.73 µM (inactive) | 53.7 µM (inactive) | 2.88 µM (inactive) | 1.2 µM (inactive) | 0.558 µM (active) | 1.29 µM (inactive) | 0.822 µM (active) | 0.753 µM (active) | 1.02 µM (active) | 4.29 µM (inactive) | 1.12 µM (active) |
| NC(=S)N/N=C(/CC(=O)c1ccccc1)C(=O)Nc1ccc(Cl)c(Cl)c1 | 59.7 µM (inactive) | > 100 µM (inactive) | 93.5 µM (inactive) | 23.3 µM (inactive) | 65.3 µM (inactive) | 74.3 µM (inactive) | > 100 µM (inactive) | 32.3 µM (inactive) | > 100 µM (inactive) | 57.3 µM (inactive) | > 100 µM (inactive) | 41.7 µM (inactive) | 59 µM (inactive) | 51.2 µM (inactive) | 60.4 µM (inactive) |  |  |  |  |  |
| O=C(O)[C@@H]1CCCC[C@@H]1C(=O)N(C1CCCCC1)C1CCCCC1 | > 100 µM (inactive) | > 100 µM (inactive) | > 100 µM (inactive) | > 100 µM (inactive) | > 100 µM (inactive) | > 100 µM (inactive) | > 100 µM (inactive) | > 100 µM (inactive) | > 100 µM (inactive) | > 100 µM (inactive) | > 100 µM (inactive) | > 100 µM (inactive) | > 100 µM (inactive) | > 100 µM (inactive) | > 100 µM (inactive) |  |  |  |  |  |
| c1ccc(CN(Cc2ccccn2)Cn2cccn2)nc1 | 91.2 µM (inactive) | 38.2 µM (inactive) |  | 22.9 µM (inactive) | 63.8 µM (inactive) | 67.6 µM (inactive) | 35 µM (inactive) | 29.2 µM (inactive) |  | > 100 µM (inactive) | 15.7 µM (inactive) | 43.9 µM (inactive) | 39.2 µM (inactive) | 79.6 µM (inactive) | > 100 µM (inactive) |  |  |  |  |  |
| Cc1oc2c(c1C(=O)c1ccccc1)C(=O)c1ccccc1C2=O | 4.38 µM (inactive) | 19.7 µM (inactive) | 15.5 µM (inactive) | 2.28 µM (inactive) | 6.55 µM (inactive) | 2.22 µM (inactive) | 2.18 µM (inactive) | 2.47 µM (inactive) | 1.81 µM (inactive) | 3.21 µM (inactive) | 11.1 µM (inactive) | 1.24 µM (inactive) | 7.24 µM (inactive) | 9.75 µM (inactive) | 14.2 µM (inactive) | 4.57 µM (inactive) | 4.07 µM (inactive) | 2 µM (inactive) | 3.52 µM (inactive) | 3.83 µM (inactive) |
| CCc1oc2ccc(OC)c3c2c1C=CC=C3 | > 100 µM (inactive) | > 100 µM (inactive) | > 100 µM (inactive) | 87.7 µM (inactive) | > 100 µM (inactive) | > 100 µM (inactive) | > 100 µM (inactive) | > 100 µM (inactive) | > 100 µM (inactive) | > 100 µM (inactive) | > 100 µM (inactive) | > 100 µM (inactive) | > 100 µM (inactive) | 21.9 µM (inactive) | > 100 µM (inactive) |  |  |  |  |  |
| CCN(C(=N)C#N)c1ccccc1 | > 41.9 µM (inactive) | > 100 µM (inactive) | > 100 µM (inactive) | > 46.9 µM (inactive) | > 100 µM (inactive) | 47.2 µM (inactive) | > 55.1 µM (inactive) | > 100 µM (inactive) | > 100 µM (inactive) | > 100 µM (inactive) | > 100 µM (inactive) | > 100 µM (inactive) | 65.9 µM (inactive) | > 100 µM (inactive) | > 100 µM (inactive) |  |  |  |  |  |
| CCCN(CCCC(NC(C)=O)C(=O)NCc1ccccc1)C(=O)NC (stereo not drawn) | > 100 µM (inactive) | > 100 µM (inactive) | > 100 µM (inactive) |  | > 100 µM (inactive) | > 100 µM (inactive) | > 100 µM (inactive) | > 100 µM (inactive) | > 100 µM (inactive) | > 100 µM (inactive) | > 100 µM (inactive) | > 100 µM (inactive) | > 100 µM (inactive) | > 100 µM (inactive) | > 100 µM (inactive) |  |  |  |  |  |
| Cc1ccc(NC(=O)C(=O)C(C(=O)c2ccc3ccccc3c2)C2OC(=O)c3ccccc32)cc1C (stereo not drawn) | 10 µM (inactive) | 10.4 µM (inactive) | 2.77 µM (inactive) | 8.87 µM (inactive) | 19.5 µM (inactive) | 14.4 µM (inactive) | 6.34 µM (inactive) | 3.3 µM (inactive) | 12.7 µM (inactive) | 13.1 µM (inactive) | 10.3 µM (inactive) | 15.2 µM (inactive) | 3.92 µM (inactive) | 11.9 µM (inactive) | 14.7 µM (inactive) |  |  |  |  |  |
| CCCCC(C(=O)C(=O)NC1C2CC3CC(C2)CC1C3)C(=O)C(C)C (stereo not drawn) | > 100 µM (inactive) | > 100 µM (inactive) | > 100 µM (inactive) | > 100 µM (inactive) | > 100 µM (inactive) | > 100 µM (inactive) | > 100 µM (inactive) | > 100 µM (inactive) | > 100 µM (inactive) | > 100 µM (inactive) | > 100 µM (inactive) | > 100 µM (inactive) | > 100 µM (inactive) | > 100 µM (inactive) | > 100 µM (inactive) |  |  |  |  |  |
| O=C(/C=C/c1ccccc1Cl)NC1C=Nc2ccc([N+](=O)[O-])cc2NC1 (stereo not drawn) | 44.8 µM (inactive) | > 100 µM (inactive) | > 100 µM (inactive) | 49.2 µM (inactive) | 34.4 µM (inactive) | 39.4 µM (inactive) | 53.2 µM (inactive) | 13.4 µM (inactive) | > 100 µM (inactive) | 78.3 µM (inactive) | > 100 µM (inactive) | > 100 µM (inactive) | 35.3 µM (inactive) | 24.4 µM (inactive) | > 100 µM (inactive) |  |  |  |  |  |
| CCOC(=O)N1C/C(=C\c2ccc(N(C)C)cc2)C(=O)/C(=C/c2ccc(N(C)C)cc2)C1 | > 100 µM (inactive) | > 100 µM (inactive) | > 100 µM (inactive) | > 100 µM (inactive) | > 100 µM (inactive) | > 100 µM (inactive) | > 100 µM (inactive) | > 100 µM (inactive) | > 100 µM (inactive) | > 100 µM (inactive) | > 100 µM (inactive) | > 100 µM (inactive) | > 100 µM (inactive) | > 100 µM (inactive) | > 100 µM (inactive) |  |  |  |  |  |
